Experimental findings from US12472176B2, “Pharmaceutical compositions comprising (S)-4-(4-(4-(((2-(2,6-dioxopiperidin-3-yl)-1-oxoisoindolin-4-yl)oxy)methyl)benzyl)piperazin-1-yl)-3-fluorobenzonitrile and methods of using the same” (Celgene Corporation, priority 2020, dated 2025) are described below.

The nature of data set [1]: Binary drug-excipient compatibility study (open dish). The data set is classed as physicochemical. As to the method: A binary drug-excipient compatibility study was conducted to identify suitable excipients for capsule formulation. Considering the low dose formulation where diluent constitutes majority of the composition, API to diluent ratio was 1:400; for other excipients, the ration was 1:50.
Drug substance and excipients were dispensed at predetermined ratios, mixed using a vortex mixer for 30 seconds, and then dispensed into required number of vials for stability study. These vials (open dish condition) were exposed to 50° C./0% RH and 50° C./75% RH conditions for 2 and 4 weeks respectively. The control samples were stored in a refrigerator at 5° C. Selective samples were tested for chemical degradants and loss of chiral purity (conversion of S-isomer to R-isomer) after 2-weeks.
The following are the major degradation pathways that could be shelf-life limiting: (1) hydrolysis; (2) oxidation; and (3) loss of chiral purity. The total chemical impurities and chiral impurity levels of the samples after stressing for 2-weeks and 4-weeks are compared with the control samples which are shown in FIG. 1A and FIG. 1B, respectively.

Data set [2] can be described thus: pKa and pHmax of the HBr salt. It is filed as physicochemical.
The mark [3] stands for this setting: control sample, stored at 5° C.

In turn, `Br.N#Cc1ccc(N2CCN(Cc3ccc(COc4cccc5c4CN([C@H]4CCC(=O)NC4=O)C5=O)cc3)CC2)c(F)c1` [Compound 1 HBr] showed a chemical impurity level in data set [1] (2-weeks exposure at 50° C./75% RH, open dish) of 0.35%. The compound further had a chemical impurity level in data set [1] (4-weeks exposure at 50° C./75% RH, open dish) of 0.77%. Besides, the chiral impurity in data set [1] (4 weeks at 50° C./75% RH, open dish) was 0.4%. Further, in data set [1] (setting [3]), the chemical impurities was 0.2% and the chiral impurity is reported as 0.3%. Further, the “change in chemical impurities or chiral impurity” value in data set [1] (dry condition (50° C.)) is “no significant change”. In addition, in data set [2], the pHmax is 4.62 and the pKa amounted to 6.62.
